# Test results taken from patent US4622422A, “Cyclohexanealkanoic acids” (Merrell Dow Pharmaceuticals Inc., priority 1985, dated 1986).
# Key:
# leukotriene D4 = test: In vivo leukotriene D4 antagonist activity in anesthetized guinea pigs (modified Konzett-Rossler preparation); set-up: species or system guinea pig; settings: 10-20 min before 1 μg/ml LTD4 aerosol (1 min), inflation pressure response
# Method: Compounds of the present invention were also tested for in vivo leukotriene D4 antagonist activity in anesthetized guinea pigs using a modified Konzett-Rossler preparation. Specifically, the guinea pigs were anesthetized with sodium pentobarbital and surgically prepared for artificial ventilation by a constant volume respirator. The inflation pressure produced by the respirator was measured for each inflation of the guinea pigs' lungs. Increases in inflation pressure above baseline are indicative of bronchoconstriction. After establishing a baseline inflation pressure, the guinea pig was exposed for 1 minute to an aerosol generated ultrasonically from a 1 μg/ml solution of leukotriene D4. After the inflation pressure returned to baseline, the guinea pig was exposed to an aerosol generated from a solution of a test compound. Ten to twenty minutes later, the guinea pig was re-exposed to a 1 minute aerosol generated from 1 μg/ml leukotriene D4. This response was then compared to the initial response and the % inhibition of the response was determined.
# [1] = biological target: T1, 3H-LTD4 specific receptor (guinea pig lung membranes) (Cavia porcellus, UniProt Q2NNR5); test: 3H-LTD4 - Specific Receptor Binding in Guinea Pig Lung Membranes; settings: inhibition of 3H-LTD4 specific binding; pH 7.6, 37° C., 20-40 min; read-out: G.P. LUNG SPECIFIC BINDING IC50
# T1 construct: from tissue; host or cells: guinea pig lung membranes (30,000 g pellet)
# T1 sequence (Q2NNR5 1-340): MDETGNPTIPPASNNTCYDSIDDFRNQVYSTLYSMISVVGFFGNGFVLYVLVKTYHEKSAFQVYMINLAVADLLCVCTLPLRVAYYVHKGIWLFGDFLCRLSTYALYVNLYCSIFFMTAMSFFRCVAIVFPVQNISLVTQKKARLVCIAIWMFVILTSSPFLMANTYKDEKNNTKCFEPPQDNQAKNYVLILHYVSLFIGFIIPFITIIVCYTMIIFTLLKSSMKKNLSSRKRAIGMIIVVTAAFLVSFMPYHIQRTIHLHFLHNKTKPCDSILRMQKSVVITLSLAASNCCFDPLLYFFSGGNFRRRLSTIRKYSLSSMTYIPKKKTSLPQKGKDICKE
# Method: Male guinea pigs were sacrificed and the lungs were removed and placed in ice cold 50 mM Tris-HCl buffer, pH 7.4. The lungs were then homogenized with a Polytron homogenizer and the homogenate was centrifuged at 1000 g for 10 minutes at 4° C. The supernatant was then centrifuged at 30,000 g for 15 minutes at 4° C. to obtain the membrane pellet. This pellet was resuspended in 50 mM Tris-HCl to provide the working suspension of lung membranes. Binding assays were then carried out in 50 mM Tris-HCl at pH 7.6 and 37° C. using incubation periods of 20-40 min. Separation of bound ^3 H-LTD4 from free ^3 H-LTD4 were performed by rapid vacuum filtration through Whatman GF/B glass fiber filters using ice cold Tris-HCl buffer and three 4 ml washes. Filtration and washing were completed in less than 8 seconds. The radioactivity on the filters was then measured. Specific binding of ^3 H-LTD4 was defined as the binding of ^3 H-LTD4 in the absence of unlabelled LTD4 minus the binding of ^3 H-LTD4 in the presence of 2×10^-7 M unlabelled LTD4. Specific binding of ^3 H-LTD4 was 60-80% of total binding. […] In these tests increasing concentrations of the agent are used to block the ^3 H-LTD4 specific binding. The concentration that reduces the specific binding of ^3 H-LTD4 by 50% is termed the IC50.
# [2] = biological target: T2, leukotriene D4 (longitudinal muscle of guinea pig ileum) (Cavia porcellus, UniProt Q2NNR5); test: Longitudinal Muscle of Guinea Pig Ileum; antagonism of LTD4-induced contraction; assay type: cell-based; settings: 1 μM Indomethacin, 15 min with test agent, then cumulative LTD4, Arunlakshana and Schild, read-out: G.P. ILEUM pA2 (LTD4) (converted)
# T2 construct: The longitudinal muscle was then carefully dissected from the circular muscle of the ileum; from tissue; host or cells: guinea pig ileum, longitudinal muscle segments
# T2 sequence (Q2NNR5 1-340): T1 sequence (Q2NNR5 1-340)
# Method: Male, Hartley-Duncan, guinea pigs were sacrificed by cervical dislocation. The terminal portion of the ileum was removed, rinsed, and placed in Burn's modified Tyrode's solution. The longitudinal muscle was then carefully dissected from the circular muscle of the ileum. The longitudinal muscle was cut into 1-2 cm. segments which were placed in a tissue bath containing oxygenated Burn's modified Tyrode's solution warmed to 37° C. A tension of 1.0 gram was then placed on each segment of muscle. After equilibration for 1 hour, 1 μM Indomethacin was added to each bath. After 5 minutes, each tissue segment was then exposed to a concentration of 60 nM leukotriene D4. This response was then considered to be the initial maximal contraction that each segment will produce. After washing the tissue several times, over a 1 hour period, 1 μM Indomethacin was again added to each bath. After a 5 minute period the test agent or vehicle was added to the bath. After 15 minutes, a concentration-response curve was generated using cumulatively increasing concentrations of leukotriene D4. The concentration-response was then compared to the initial maximum contraction. A test compound was considered active, if at concentrations up to 100 μM, it produces a significant shift to the right of the concentration-response relationship to leukotriene D4. The antagonist activity was quantitated in terms of a pA2 value calculated according to the method described by Arunlakshana and Schild, (Brit. J. Pharmac. Chemotherap. 14; 48, 1959).
Structure (SMILES),IC50 [1],Kb [2],PERCENT INHIBITION (leukotriene D4; 5 mg/ml solution aerosolized),PERCENT INHIBITION (leukotriene D4; 10 mg/ml solution aerosolized)
"CCCCCCCCCCCCC/C=C1\CC[C@@H](CC(=O)O)[C@H](O)[C@H]1SCC(=O)O (relative stereo) [Example 15A, (1α,2β,3α,4E)-3-[(carboxymethyl)thio]-2-hydroxy-4-tetradecylidenecyclohexaneacetic acid]",3000 nM,3390 nM,25.3%,64.2%
"CCCCCCCCCCCCC/C=C1\CC[C@@H](CCC(=O)O)[C@@H](O)[C@@H]1SCC(=O)O (relative stereo) [Example 15C, (1α,2α,3β,4E)-3-[(Carboxymethyl)thio]-2-hydroxy-4-tetradecylidenecyclohexanepropionic acid]",,1620 nM,,
"CCCCCCCCCCCCC/C=C1\CC[C@@H](CC(=O)O)[C@H](O)[C@H]1SCCC(=O)O (relative stereo) [Example 15B, (1α,2β,3α,4E)-3-[(2-Carboxyethyl)thio]-2-hydroxy-4-tetradecylidenecyclohexaneacetic acid]",400 nM,3090 nM,44.3%,
"CCCCCCCCCCCCC/C=C1\CC[C@@H](CC(=O)O)[C@@H](O)[C@H]1SCC(=O)O (relative stereo) [Example 18, (1α,2α,3α,4E)-3-[(carboxymethyl)thio]-2-hydroxy-4-tetradecylidenecyclohexaneacetic acid]",,30900 nM,,

# Continued, in another order:
IC50 [1],Kb [2],Structure (SMILES),PERCENT INHIBITION (leukotriene D4; 5 mg/ml solution aerosolized),PERCENT INHIBITION (leukotriene D4; 10 mg/ml solution aerosolized)
,2000 nM,"CCCCCCCCCCCCC/C=C1\CC[C@@H](CCC(=O)O)[C@@H](O)[C@@H]1SCCC(=O)O (relative stereo) [Example 15D, (1α,2α,3β,4E)-3-[(2-Carboxyethyl)thio]-2-hydroxy-4-tetradecylidenecyclohexanepropionic acid]",,
,2240 nM,"CCCCCCCCCCCCC/C=C1\CC[C@@H](CCC(=O)O)[C@H](O)[C@H]1SCC(=O)O (relative stereo) [Example 15E, (1α,2β,3α,4E)-3-[(Carboxymethyl)thio]-2-hydroxy-4-tetradecylidenecyclohexanepropionic acid]",,
